Laboratory results reported in patent publication US11891387B2, “Monoacylglycerol lipase modulators” (Janssen Pharmaceutica NV, priority 2020, dated 2024).

Target: human MGL from HeLa cells (Homo sapiens (Human), UniProt Q99685)
Assay: MGL in vitro activity assay: cleavage of [glycerol-1,3-3H]-oleyl glycerol, activated carbon filtration
Type: biochemical
Conditions: 300 nM [Glycerol-1,3-3H]-oleyl glycerol, endogenously expressed MGL from HeLa cells, one hour incubation
Protocol: The assay used to measure the in vitro activity of MGL is adapted from the assay used for another serine hydrolase (FAAH) described in Wilson et al., 2003 (A high-throughput-compatible assay for determining the activity of fatty acid amide hydrolase. Wilson S J, Lovenberg T W, Barbier A J. Anal Biochem. 2003 Jul. 15; 318(2):270-5.). The assay consists of combining endogenously expressed MGL from HeLa cells with test compounds, adding [glycerol-1,3-^3H]-oleyl glycerol, incubating for one hour, and then measuring the amount of cleaved [1,3-^3H]-glycerol that passes through an activated carbon filter. The amount of cleaved, tritiated glycerol passing through the carbon filter is proportional to the activity of the MGL enzyme in a particular well/test condition.
Standard conditions for this assay combine 300 nM [Glycerol-1,3-^3H]-oleyl glycerol with human MGL from HeLa cells and test compounds for one hour, after which the reaction is filtered through activated carbon and tritium is measured in the flow through. The test compound concentration in screening mode is 10 μM, while the highest compound concentration in IC50 assays is determined empirically. MGL is the predominant hydrolase in HeLa cells/cell homogenates.

Chain of human MGL from HeLa cells (Q99685 whole entry): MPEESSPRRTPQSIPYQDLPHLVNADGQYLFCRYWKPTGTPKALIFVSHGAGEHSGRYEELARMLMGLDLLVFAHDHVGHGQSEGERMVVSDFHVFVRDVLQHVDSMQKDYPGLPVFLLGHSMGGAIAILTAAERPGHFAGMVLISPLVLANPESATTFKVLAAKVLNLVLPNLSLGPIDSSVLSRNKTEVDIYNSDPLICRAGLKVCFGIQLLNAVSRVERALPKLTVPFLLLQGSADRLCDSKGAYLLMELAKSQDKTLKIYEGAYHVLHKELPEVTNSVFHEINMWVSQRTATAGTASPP

Question: How did the IC50 turn out when `C[C@H]1c2nn(C)c(-c3cnn(-c4ccccn4)c3)c2CCN1C(=O)c1ccc2ncccc2c1` [Example 70, (S)-(2,7-Dimethyl-3-(1-(pyridin-2-yl)-1H-pyrazol-4-yl)-2,4,5,7-tetrahydro-6H-pyrazolo[3,4-c]pyridin-6-yl)(quinolin-6-yl)methanone] was run?
Answer: 1230 nM

Question: How did the IC50 turn out when `CCn1nc(C(F)(F)F)cc1-c1c2c(nn1C)[C@@H]1CCC[C@H](C2)N1C(=O)c1cccc(C)c1` [Example 78, ((5R,9S)-3-(1-Ethyl-3-(trifluoromethyl)-1H-pyrazol-5-yl)-2-methyl-4,5,6,7,8,9-hexahydro-2H-5,9-epiminocycloocta[c]pyrazol-10-yl)(m-tolyl)methanone] was run?
Answer: 160 nM

Question: Which IC50 does the source give for `COc1cccc(C(=O)N2CCc3c(nn(C)c3-c3cnn(C)c3C(F)(F)F)[C@@H]2C)c1Cl` [Example 51, (S)-(2-Chloro-3-methoxyphenyl)(2,7-dimethyl-3-(1-methyl-5-(trifluoromethyl)-1H-pyrazol-4-yl)-2,4,5,7-tetrahydro-6H-pyrazolo[3,4-c]pyridin-6-yl)methanone] here?
Answer: 890 nM

Question: With `Cc1cc2ncsc2cc1C(=O)N1CCc2c(nn(C)c2-c2cc(C(F)(F)F)nn2C)[C@@H]1C` [Example 134, (S)-(2,7-Dimethyl-3-(1-methyl-3-(trifluoromethyl)-1H-pyrazol-5-yl)-2,4,5,7-tetrahydro-6H-pyrazolo[3,4-c]pyridin-6-yl)(5-methylbenzo[d]thiazol-6-yl)methanone] as the compound, how does the IC50 read?
Answer: 87 nM

Question: With `C[C@H]1c2nn(C)c(-c3cc(C(F)(F)F)nn3C)c2CCN1C(=O)c1nn(C)c2ccccc12` [Example 6, (S)-(2,7-Dimethyl-3-(1-methyl-3-(trifluoromethyl)-1H-pyrazol-5-yl)-2,4,5,7-tetrahydro-6H-pyrazolo[3,4-c]pyridin-6-yl)(1-methyl-1H-indazol-3-yl)methanone] as the compound, how does the IC50 read?
Answer: 37 nM

Question: With `Cc1cccc2ncc(C(=O)N3CCc4c(nn(C)c4-c4cc(C(F)(F)F)nn4C)[C@@H]3C)n12` [Example 8, (S)-(2,7-Dimethyl-3-(1-methyl-3-(trifluoromethyl)-1H-pyrazol-5-yl)-2,4,5,7-tetrahydro-6H-pyrazolo[3,4-c]pyridin-6-yl)(5-methylimidazo[1,2-a]pyridin-3-yl)methanone] as the compound, how does the IC50 read?
Answer: 8.9 nM

Question: Which IC50 does the source give for `C[C@H]1c2nn(C)c(-c3cnn(C)c3C(F)(F)F)c2CCN1C(=O)c1n[nH]c2cc(F)cc(F)c12` [Example 28, (S)-(4,6-Difluoro-1H-indazol-3-yl)(2,7-dimethyl-3-(1-methyl-5-(trifluoromethyl)-1H-pyrazol-4-yl)-2,4,5,7-tetrahydro-6H-pyrazolo[3,4-c]pyridin-6-yl)methanone] here?
Answer: 2120 nM

Question: Which IC50 does the source give for `Cc1cccn2ncc(C(=O)N3CCc4c(nn(C)c4-c4cc(C(F)(F)F)nn4C)[C@@H]3C)c12` [Example 7, (S)-(2,7-Dimethyl-3-(1-methyl-3-(trifluoromethyl)-1H-pyrazol-5-yl)-2,4,5,7-tetrahydro-6H-pyrazolo[3,4-c]pyridin-6-yl)(4-methylpyrazolo[1,5-a]pyridin-3-yl)methanone] here?
Answer: 50 nM

Question: `Cc1ccc(C(=O)N2CCc3c(nn(C)c3-c3cnn(C)c3C(F)(F)F)[C@@H]2C)c(F)c1` [Example 30, (S)-(2,7-Dimethyl-3-(1-methyl-5-(trifluoromethyl)-1H-pyrazol-4-yl)-2,4,5,7-tetrahydro-6H-pyrazolo[3,4-c]pyridin-6-yl)(2-fluoro-4-methylphenyl)methanone] was tested. Which IC50 did it give?
Answer: 3070 nM

Question: Which IC50 does the source give for `COc1cc(Cl)cc(C(=O)N2CCc3c(nn(C)c3-c3cc(C(F)(F)F)nn3C)[C@@H]2C)c1` [Example 39, (S)-(3-Chloro-5-methoxyphenyl)(2,7-dimethyl-3-(1-methyl-3-(trifluoromethyl)-1H-pyrazol-5-yl)-2,4,5,7-tetrahydro-6H-pyrazolo[3,4-c]pyridin-6-yl)methanone] here?
Answer: 38 nM

Question: For `C[C@H]1c2nn(C)c(-c3cc(C(F)(F)F)nn3C)c2CCN1C(=O)c1cc(F)ccc1-n1cccn1` [Example 37, (S)-(2,7-Dimethyl-3-(1-methyl-3-(trifluoromethyl)-1H-pyrazol-5-yl)-2,4,5,7-tetrahydro-6H-pyrazolo[3,4-c]pyridin-6-yl)(5-fluoro-2-(1H-pyrazol-1-yl)phenyl)methanone], which IC50 is on record?
Answer: 380 nM

Question: How did the IC50 turn out when `C[C@H]1c2nn(C)c(-c3cnn(C)c3)c2CCN1C(=O)c1ccc2ncccc2c1` [Example 62, (S)-(2,7-Dimethyl-3-(1-methyl-1H-pyrazol-4-yl)-2,4,5,7-tetrahydro-6H-pyrazolo[3,4-c]pyridin-6-yl)(quinolin-6-yl)methanone] was run?
Answer: 1940 nM

Question: How did the IC50 turn out when `Cn1nc(C(F)(F)F)cc1-c1c2c(nn1C)[C@@H]1CCC[C@H](C2)N1C(=O)c1ccc2c(c1)OCCC2` (stereo in doubt) [Example 75, Chroman-7-yl((5R,9S)-2-methyl-3-(1-methyl-3-(trifluoromethyl)-1H-pyrazol-5-yl)-4,5,6,7,8,9-hexahydro-2H-5,9-epiminocycloocta[c]pyrazol-10-yl)methanone] was run?
Answer: 44 nM

Question: For `C[C@H]1c2nn(C)c(-c3cc(C(F)(F)F)nn3C)c2CCN1C(=O)c1nccc2ccccc12` [Example 44, (S)-(2,7-Dimethyl-3-(1-methyl-3-(trifluoromethyl)-1H-pyrazol-5-yl)-2,4,5,7-tetrahydro-6H-pyrazolo[3,4-c]pyridin-6-yl)(isoquinolin-1-yl)methanone], which IC50 is on record?
Answer: 19 nM

Question: With `Cc1cc(C(=O)N2CCc3c(nn(C)c3-c3cc(C(F)(F)F)nn3C)[C@@H]2C)c2cc(F)ccc2n1` [Example 10, (S)-(2,7-Dimethyl-3-(1-methyl-3-(trifluoromethyl)-1H-pyrazol-5-yl)-2,4,5,7-tetrahydro-6H-pyrazolo[3,4-c]pyridin-6-yl)(6-fluoro-2-methylquinolin-4-yl)methanone] as the compound, how does the IC50 read?
Answer: 18 nM

Question: For `Cc1cc(C(=O)N2CCc3c(nn(C)c3-c3cnn(C)c3C(F)(F)F)[C@@H]2C)cc(-n2nccn2)c1` [Example 53, (S)-(2,7-Dimethyl-3-(1-methyl-5-(trifluoromethyl)-1H-pyrazol-4-yl)-2,4,5,7-tetrahydro-6H-pyrazolo[3,4-c]pyridin-6-yl)(3-methyl-5-(2H-1,2,3-triazol-2-yl)phenyl)methanone], which IC50 is on record?
Answer: 810 nM

Question: `C[C@H]1c2nn(C)c(-c3ccn(C(F)F)n3)c2CCN1C(=O)c1ccc2ncccc2c1` [Example 67, (S)-(3-(1-(Difluoromethyl)-1H-pyrazol-3-yl)-2,7-dimethyl-2,4,5,7-tetrahydro-6H-pyrazolo[3,4-c]pyridin-6-yl)(quinolin-6-yl)methanone] was tested. Which IC50 did it give?
Answer: 1340 nM

Question: With `Cc1ccc(C(=O)N2[C@@H]3CCC[C@H]2c2nn(C)c(-c4cc(C)nn4C)c2C3)c(F)c1` (stereo in doubt) [Example 72, ((5R,9S)-3-(1,3-Dimethyl-1H-pyrazol-5-yl)-2-methyl-4,5,6,7,8,9-hexahydro-2H-5,9-epiminocycloocta[c]pyrazol-10-yl)(2-fluoro-4-methylphenyl)methanone] as the compound, how does the IC50 read?
Answer: 1130 nM

Question: How did the IC50 turn out when `C[C@H]1c2nn(C)c(-c3cc(C(F)(F)F)nn3C)c2CCN1C(=O)c1cnn2cc(F)cc(F)c12` [Example 17, (S)-(4,6-Difluoropyrazolo[1,5-a]pyridin-3-yl)(2,7-dimethyl-3-(1-methyl-3-(trifluoromethyl)-1H-pyrazol-5-yl)-2,4,5,7-tetrahydro-6H-pyrazolo[3,4-c]pyridin-6-yl)methanone] was run?
Answer: 20 nM

Question: Which IC50 does the source give for `Cc1ccc2cc(C(=O)N3CCc4c(nn(C)c4-c4cnn(C)c4C(F)(F)F)[C@@H]3C)cc(C)c2n1` [Example 33, (S)-(2,7-Dimethyl-3-(1-methyl-5-(trifluoromethyl)-1H-pyrazol-4-yl)-2,4,5,7-tetrahydro-6H-pyrazolo[3,4-c]pyridin-6-yl)(2,8-dimethylquinolin-6-yl)methanone] here?
Answer: 6470 nM

Question: How did the IC50 turn out when `C[C@H]1c2nn(C)c(-c3cnn(C)c3C(F)(F)F)c2CCN1C(=O)c1cccc2cnn(C)c12` [Example 31, (S)-(2,7-Dimethyl-3-(1-methyl-5-(trifluoromethyl)-1H-pyrazol-4-yl)-2,4,5,7-tetrahydro-6H-pyrazolo[3,4-c]pyridin-6-yl)(1-methyl-1H-indazol-7-yl)methanone] was run?
Answer: 10000 nM

Question: With `C[C@H]1c2nn(C)c(-c3ccnn3C3CC3)c2CCN1C(=O)c1ccc2ncccc2c1` [Example 68, (S)-(3-(1-Cyclopropyl-1H-pyrazol-5-yl)-2,7-dimethyl-2,4,5,7-tetrahydro-6H-pyrazolo[3,4-c]pyridin-6-yl)(quinolin-6-yl)methanone] as the compound, how does the IC50 read?
Answer: 4200 nM

Question: How did the IC50 turn out when `C[C@H]1c2nn(C)c(-c3cc(C(F)(F)F)n(C)n3)c2CCN1C(=O)c1ccc2ncccc2c1` [Example 63, (S)-(2,7-Dimethyl-3-(1-methyl-5-(trifluoromethyl)-1H-pyrazol-3-yl)-2,4,5,7-tetrahydro-6H-pyrazolo[3,4-c]pyridin-6-yl)(quinolin-6-yl)methanone] was run?
Answer: 63 nM

Question: `C[C@H]1c2nn(C)c(-c3cc(C(F)(F)F)nn3C)c2CCN1C(=O)c1cccc2c1ccn2C` [Example 45, (S)-(2,7-Dimethyl-3-(1-methyl-3-(trifluoromethyl)-1H-pyrazol-5-yl)-2,4,5,7-tetrahydro-6H-pyrazolo[3,4-c]pyridin-6-yl)(1-methyl-1H-indol-4-yl)methanone] was tested. Which IC50 did it give?
Answer: 1.1 nM

Question: `Cn1nc(C(F)(F)F)cc1-c1c2c(nn1C)[C@@H]1CCC[C@H](C2)N1C(=O)c1nn(C)c2ncccc12` [Example 85, (1-Methyl-1H-pyrazolo[3,4-b]pyridin-3-yl)((5R,9S)-2-methyl-3-(1-methyl-3-(trifluoromethyl)-1H-pyrazol-5-yl)-4,5,6,7,8,9-hexahydro-2H-5,9-epiminocycloocta[c]pyrazol-10-yl)methanone] was tested. Which IC50 did it give?
Answer: 64 nM
